This is an account of results in US12122750B2, “AT2R antagonists and uses thereof” (Eli Lilly and Company, priority 2022, dated 2024).

As a reminder, the Ki is the equilibrium dissociation constant of an inhibitor or competing ligand from its target.

recombinant human angiotensin-II receptor subtype 2 (hAT2R), sequence (P50052 whole entry): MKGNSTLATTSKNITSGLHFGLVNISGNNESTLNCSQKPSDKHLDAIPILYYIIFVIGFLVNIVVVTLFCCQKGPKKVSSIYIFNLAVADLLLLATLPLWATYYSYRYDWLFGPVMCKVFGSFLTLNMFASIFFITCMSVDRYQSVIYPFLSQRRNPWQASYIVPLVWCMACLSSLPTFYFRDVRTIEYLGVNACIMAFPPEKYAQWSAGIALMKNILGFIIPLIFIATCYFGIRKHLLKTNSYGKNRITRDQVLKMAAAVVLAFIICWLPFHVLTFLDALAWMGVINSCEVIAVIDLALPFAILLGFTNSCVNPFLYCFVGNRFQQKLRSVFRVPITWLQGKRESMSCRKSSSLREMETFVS

This assay addresses recombinant human angiotensin-II receptor subtype 2 (hAT2R) (Homo sapiens (Human), UniProt P50052). Kind of assay: Competitive radioligand binding assay (SPA), hAT2R HEK293 membranes. To be noted: [125I]-Tyr4-Angiotensin-II, read-out: AT2R Ki. As to the method:
Compound Solubilization Test and reference compounds were received as dry powder reagents, weighed, and solubilized in 100% DMSO to generate a working stock concentration of 10 mM. Membrane Preparation Protocol (hAT2R HEK293 and rAT2R HEK293) hAT2R membranes were prepared from human embryonic kidney (HEK293) cells which were stably transfected with recombinant human angiotensin-II receptor subtype 2 (hAT2R). Cells from the stable cell lines were expanded in tissue culture flasks to generate a large population of cells; cell pellet (>1 gm), and these cell pellets were stored frozen prior to initiating this membrane isolation procedure for each receptor isoform. Frozen cell pellets were thawed in ice-cold homogenization/resuspension buffer (50 mM Tris-HCl, pH 7.5) containing one Complete© protease inhibitor tablet with EDTA (Roche Diagnostics) per 50 mL buffer, and cell pellet was resuspended at a ratio of 10 mL homogenization buffer to gram of starting cell pellet. Cell suspension was homogenized with an overhead motor-driven Teflon-glass homogenizer using 15 to 20 strokes, followed by centrifugation at 1100×g for 10 minutes at 4° C. The supernatant was saved on ice, pellets were homogenized as before, and centrifuged at 1100×g for 10 minutes at 4° C. Both supernatants were combined and subsequently centrifuged at 35,000×g for 60 minutes at 4° C. The final centrifugation pellet (pellet 2) containing the isolated membranes was resuspended in buffer (4 to 5 mL/g of starting cell paste) containing protease inhibitors and quick frozen in liquid nitrogen prior to storage at -80° C. Protein concentration was determined using a BCA kit (ThermoScientific, Inc.) with bovine serum albumin (BSA) as standard. […] The assays were performed with a scintillation proximity assay (SPA) method using polyvinyltoluene (PVT) wheat germ agglutinin-coupled SPA beads (Perkin Elmer Cat. #RPNQ0001). Assay buffer containing BSA (50 mM Tris-HCl, pH 7.5, 150 mM NaCl, 0.1% w/v fatty-acid free BSA) was used for preparing radioligand, membrane and SPA bead reagent dilution to working stock concentrations. Reference control and test compounds were diluted to obtain ten-point concentration response curves using a four-fold serial dilution protocol onto assay plates, dispensed acoustically from DMSO stock using automated ECHO instrument technology (Labcyte, Inc.). Concentration response curves were routinely generated with the highest final assay concentration for the reference angiotensin-II control at 50 nM, and the highest final assay concentration for the test compounds at 50 μM. […] The hAT2R membrane was combined with PVT-WGA SPA beads to obtain a final assay concentration of 0.25 μg/well hAT2R membrane+0.1 mg/well PVT-WGA SPA bead. And the hAT1R membrane PVT-WGA SPA bead final concentrations was 0.5 μg/well hAT1R membrane+0.1 mg/well PVT-WGA SPA bead. […] For all assays, radioligand addition was followed by the addition of membrane-SPA bead mixture, i.e., the hAT2R membrane-SPA bead mixture (30 μL), the rAT2R membrane-SPA bead mixture, or the AT1R membrane-SPA bead mixture (30 μL) into the assay plate. All dispensing steps were added using a Multiflo FX (Biotek, Inc.) bulk dispensing instrument. After reagent addition steps, assay plates were sealed, and plate contents mixed for one minute on a benchtop micro-plate shaker. Following a 10-hour incubation at room temperature to allow for bead settling and radioligand binding, bound radioactivity was quantitated using a Microbeta Trilux scintillation counter (Perkin Elmer) and expressed as counts per minute (CPM). The unlabeled angiotensin-II control was included on each plate as an experimental assay reference. […] Data Analysis Procedures Compounds were tested in a 10-point concentration response curve (CRC) format, with each plate containing the positive control angiotensin-II positive reference compound, and experimental compounds.
With `CN(C(=O)N1CCC(CC(=O)N(c2ccccc2)C2CCCCC2(F)F)(C(=O)O)CC1)c1ccc(F)cc1` (racemic) [Example 10, 4-[2-(N-(2,2-difluorocyclohexyl)anilino)-2-oxo-ethyl]-1-[(4-fluorophenyl)-methyl-carbamoyl]piperidine-4-carboxylic acid], the Ki came to 1.56 nM.

Consider `CCC(C1CC1)N(C(=O)CC1(C(=O)O)CCN(C(=O)N(C)c2ccc(F)cc2)CC1)c1ccccc1` (racemic) [Example 17, 4-[2-[N-(1-cyclopropylpropyl)anilino]-2-oxo-ethyl]-1-[(4-fluorophenyl)-methyl-carbamoyl]piperidine-4-carboxylic acid], for which the Ki is 5.82 nM.

As to `CC(C)C(C)N(C(=O)CC1(C(=O)O)CCN(C(=O)N(C)c2ccc(F)cc2)CC1)c1ccccc1` (racemic) [Example 34, 4-[2-(N-[(1)-1,2-dimethylpropyl]anilino)-2-oxo-ethyl]-1-[(4-fluorophenyl)-methyl-carbamoyl]piperidine-4-carboxylic acid], the Ki came out at 4.32 nM.

For the molecule `CC(CC(F)F)N(C(=O)CC1(C(=O)O)CCN(C(=O)N(C)c2ccc(F)cc2)CC1)c1ccccc1` (racemic) [Example 36, 4-[2-(N-(3,3-difluoro-1-methyl-propyl)anilino)-2-oxo-ethyl]-1-[(4-fluorophenyl)-methyl-carbamoyl]piperidine-4-carboxylic acid], the Ki amounted to 4.43 nM.

`CN(C(=O)N1CCC(CC(=O)N(c2ccccc2)C2CCCOC2)(C(=O)O)CC1)c1ccc(F)cc1` (racemic) [Example 41, 1-[(4-fluorophenyl)-methyl-carbamoyl]-4-[2-oxo-2-(N-tetrahydropyran-3-ylanilino)ethyl]piperidine-4-carboxylic acid]: the inhibition constant Ki came to 16.6 nM.

For `CC(C1CC1)N(C(=O)CC1(C(=O)O)CCN(C(=O)N(C)c2ccc(F)cc2)CC1)c1ccccc1` (racemic) [Example 43, 4-[2-[N-(1-cyclopropylethyl)anilino]-2-oxo-ethyl]-1-[(4-fluorophenyl)-methyl-carbamoyl]piperidine-4-carboxylic acid], the inhibition constant (Ki) was 2.93 nM.

With `CN(C(=O)N1CCC(CC(=O)N(c2ccccc2)C2CCCOC2)(C(=O)O)CC1)c1ccc(C2CC2)cc1` (racemic) [Example 45, 1-[(4-cyclopropylphenyl)-methyl-carbamoyl]-4-[2-oxo-2-(N-tetrahydropyran-3-ylanilino)ethyl]piperidine-4-carboxylic acid], the Ki was 3.12 nM.

In the case of `CN(C(=O)N1CCC(CC(=O)N(c2ccccc2F)C2CCCC(F)(F)C2)(C(=O)O)CC1)c1ccccc1` (racemic) [Example 52, 4-[2-(N-(3,3-difluorocyclohexyl)-2-fluoro-anilino)-2-oxo-ethyl]-1-[methyl(phenyl)carbamoyl]piperidine-4-carboxylic acid], the Ki stood at 0.58 nM.

On to `CN(C(=O)N1CCC(CC(=O)N(c2ccc(F)cc2)C2CCCC(F)(F)C2)(C(=O)O)CC1)c1ccccc1` (racemic) [Example 54, 4-[2-(N-(3,3-difluorocyclohexyl)-4-fluoro-anilino)-2-oxo-ethyl]-1-[methyl(phenyl)carbamoyl]piperidine-4-carboxylic acid], for which the Ki stood at 2 nM.

Turning to `CC(C(=O)N1CCC(CC(=O)N(c2ccccc2)C2CCCC(F)(F)C2)(C(=O)O)CC1)c1ccc(F)cc1` (racemic) [Example 62, 4-[2-(N-(3,3-difluorocyclohexyl)anilino)-2-oxo-ethyl]-1-[2-(4-fluorophenyl)propanoyl]piperidine-4-carboxylic acid], the Ki is 1.04 nM.

On to `CC(C(=O)N1CCC(CC(=O)N(c2ccccc2)C2CCCC(F)(F)C2)(C(=O)O)CC1)c1cccc(F)c1` (racemic) [Example 63, 4-[2-(N-(3,3-difluorocyclohexyl)anilino)-2-oxo-ethyl]-1-[2-(3-fluorophenyl)propanoyl]piperidine-4-carboxylic acid], for which the Ki amounted to 1.19 nM.

Turning to `CC(C(=O)N1CCC(CC(=O)N(c2ccccc2)C2CCCC(F)(F)C2)(C(=O)O)CC1)c1ccccc1F` (racemic) [Example 64, 4-[2-(N-(3,3-difluorocyclohexyl)anilino)-2-oxo-ethyl]-1-[2-(2-fluorophenyl)propanoyl]piperidine-4-carboxylic acid], the Ki turned out to be 1.04 nM.

As for `O=C(Cc1ccccc1F)N1CCC(CC(=O)N(c2ccccc2)C2CCCC(F)(F)C2)(C(=O)O)CC1` (racemic) [Example 65, 4-[2-(N-(3,3-difluorocyclohexyl)anilino)-2-oxo-ethyl]-1-[2-(2-fluorophenyl)acetyl]piperidine-4-carboxylic acid], the Ki was 2.55 nM.

For the molecule `CC(C)c1ccc(C(=O)N2CCC(CC(=O)N(c3ccccc3)C3CCCC(F)(F)C3)(C(=O)O)CC2)c(F)c1` (racemic) [Example 68, 4-[2-(N-(3,3-difluorocyclohexyl)anilino)-2-oxo-ethyl]-1-(2-fluoro-4-isopropyl-benzoyl)piperidine-4-carboxylic acid], the Ki is 2.93 nM.

As to `CC(C)c1ccc(C(=O)N2CCC(CC(=O)N(c3ccccc3)C3CCCC(F)(F)C3)(C(=O)O)CC2)cc1` (racemic) [Example 69, 4-[2-(N-(3,3-difluorocyclohexyl)anilino)-2-oxo-ethyl]-1-(4-isopropylbenzoyl)piperidine-4-carboxylic acid], the Ki is 9.24 nM.

For the molecule `O=C(c1ccc(C2CC2)cc1)N1CCC(CC(=O)N(c2ccccc2)C2CCCC(F)(F)C2)(C(=O)O)CC1` (racemic) [Example 70, 1-(4-cyclopropylbenzoyl)-4-[2-(N-(3,3-difluorocyclohexyl)anilino)-2-oxo-ethyl]piperidine-4-carboxylic acid], the Ki came to 9.39 nM.

As to `O=C(N1CCC(CC(=O)N(c2ccccc2)C2CCCC(F)(F)C2)(C(=O)O)CC1)N1CCc2c(F)cccc21` (racemic) [Example 71, 4-[2-(N-(3,3-difluorocyclohexyl)anilino)-2-oxo-ethyl]-1-(4-fluoroindoline-1-carbonyl)piperidine-4-carboxylic acid], the Ki is 3.14 nM.

For `O=C(N1CCC(CC(=O)N(c2ccccc2)C2CCCC(F)(F)C2)(C(=O)O)CC1)N1CCc2ccc(F)cc21` (racemic) [Example 72, 4-[2-(N-(3,3-difluorocyclohexyl)anilino)-2-oxo-ethyl]-1-(6-fluoroindoline-1-carbonyl)piperidine-4-carboxylic acid], the Ki was 1.09 nM.

As for `O=C(N1CCC(CC(=O)N(c2ccccc2)C2CCCC(F)(F)C2)(C(=O)O)CC1)N1CCc2cccc(F)c21` (racemic) [Example 73, 4-[2-(N-(3,3-difluorocyclohexyl)anilino)-2-oxo-ethyl]-1-(7-fluoroindoline-1-carbonyl)piperidine-4-carboxylic acid], the inhibition constant (Ki) was found to be 3.03 nM.

Take `O=C(N1CCC(CC(=O)N(c2ccccc2)C2CCCC(F)(F)C2)(C(=O)O)CC1)N1CCc2ccccc21` (single isomer, unassigned) [Example 35A, 4-[2-(N-(3,3-difluorocyclohexyl)anilino)-2-oxo-ethyl]-1-(indoline-1-carbonyl)piperidine-4-carboxylic acid]: the Ki was determined as 10.8 nM.

On to `CN(C(=O)N1CCC(CC(=O)N(c2ccccc2)C2CCCOC2)(C(=O)O)CC1)c1ccc(F)cc1` (single isomer, unassigned) [Example 41A, 1-[(4-fluorophenyl)-methyl-carbamoyl]-4-[2-oxo-2-(N-tetrahydropyran-3-ylanilino)ethyl]piperidine-4-carboxylic acid], for which the Ki is 8.89 nM.

As to `CN(C(=O)N1CCC(CC(=O)N(c2ccccc2)C2CCCOC2)(C(=O)O)CC1)c1ccc(F)cc1` (single isomer, unassigned) [Example 41B, 1-[(4-fluorophenyl)-methyl-carbamoyl]-4-[2-oxo-2-(N-tetrahydropyran-3-ylanilino)ethyl]piperidine-4-carboxylic acid], the Ki worked out at 14.7 nM.
